Data published in patent publication US8022103B2, “Ester prodrugs of prostratin and related phorbol compounds” (Salvia Sciences, Inc., priority 2005, dated 2011).

Tests used:
HCV RNA replicon = HCV RNA replicon luciferase assay; type: cell-based
Protocol: Compounds SA-101A and SA-101B were evaluated for their effect on HCV RNA replicons using an in vitro HCV virus replication system.
Compound preparation. Compounds were prepared as a powder (˜1 mg) and solubilized in DMSO. IFNα was used as a positive antiviral control.
HCV RNA replicon system. The assay for HCV replication employed cell line ET (luc-ubi-neo/ET), which is a human Huh7 hepatoma cell line that contains an HCV RNA replicon with a stable luciferase (Luc) reporter and three cell culture-adaptive mutations (Pietschmann et al., 2002, J. Virol. 76:4008-4021). […]
Luciferase assay. […] Compound IC50 and IC90 values (antiviral activity) are derived from plots of HCV RNA levels assessed as HCV RNA replicon-derived Luc activity versus drug concentration using Steady-Glo assay reagent (Promega), with Luc luminescence read on a 1450 Microbeta liquid scintillation and luminescence counter. Compound TC50 and TC90 values (cytotoxicity) are calculated from plots of cell number vs. drug concentration using data from the CytoTox-ONE cell proliferation assay (Promega); with fluorescence read using an Analyst HT fluorometer. […] Compound selectivity indices (SI=TC/IC) SI50 and SI90 values are calculated from spreadsheets.

Human PBMCs = assay: MTS staining for PBMC viability (cytotoxicity); type: cell-based; settings: for Cytotoxicity: at the concentrations evaluated
Protocol: PMBC assay. For the standard PBMC assay, PHA-P stimulated cells from at least two normal donors were pooled (mixed together), diluted in fresh medium to a final concentration of 1×10^6 cells/mL, and plated in the interior wells of a 96 well round bottom microplate at 50 μL/well (5×10^4 cells/well) in a standard format developed by the Infectious Disease Research department of Southern Research Institute. Pooling (mixing) of mononuclear cells from more than one donor is used to minimize the variability observed between individual donors, which results from quantitative and qualitative differences in HIV infection and overall response to the PHA and IL-2 of primary lymphocyte populations. Each plate contains virus/cell control wells (cells plus virus), experimental wells (drug plus cells plus virus) and compound control wells ([…], necessary for MTS monitoring of cytotoxicity). Since HIV-1 is not cytopathic to PBMCs, this allows the use of the same assay plate for both antiviral activity and cytotoxicity measurements. Test drug dilutions were prepared at a 2× concentration in microtiter tubes and 100 μL of each concentration was placed in appropriate wells using the standard format. 50 μL of a predetermined dilution of virus stock was placed in each test well (final MOI˜0.1). The PBMC cultures were maintained for seven days following infection at 37° C., 5% CO2. After this period, cell-free supernatant samples were collected for analysis of reverse transcriptase activity and/or HIV p24 content. Following removal of supernatant samples, compound cytotoxicity was measured by addition of MTS to the plates for determination of cell viability. Wells were also examined microscopically and any abnormalities were noted.
MTS staining for PBMC viability to measure cytotoxicity. At assay termination, assay plates were stained with the soluble tetrazolium-based dye MTS (CellTiter 96 Reagent, Promega) to determine cell viability and quantify compound toxicity. The mitochondrial enzymes of metabolically active cells metabolize MTS to yield a soluble formazan product. This allows the rapid quantitative analysis of cell viability and compound cytotoxicity. […] At termination of the assay, 20 μL of MTS reagent was added per well. The microtiter plates were then incubated 4 6 hrs at 37° C. The incubation intervals were chosen based on empirically determined times for optimal dye reduction. Adhesive plate sealers were used in place of the lids, the sealed plate was inverted several times to mix the soluble formazan product and the plate was read spectrophotometrically at 490/650 ηm with a Molecular Devices Vmax or SpectraMaxPlus plate reader.
Data analysis. Using an in-house computer program, IC50 (50%, inhibition of virus replication), IC90 (90%, inhibition of virus replication), IC95 (95%, inhibition of virus replication), TC50 (50% reduction in cell viability), TC90 (90% reduction in cell viability), TC95 (95% reduction in cell viability), and a therapeutic index (TI=TC50/IC50) were determined. AZT (nucleoside reverse transcriptase inhibitor) was used as a positive control antiviral compound.

SMILES | EC50 (HCV RNA replicon) (HCV RNA replicon; ET cell line, luciferase, 72 hr) | Cytotoxicity (Human PBMCs; 40% human AB serum) | TC50 (Human PBMCs; HIV-1Ba-L assay plate, 40% Human AB serum) | TC50 (Human PBMCs; HIV-1IIIB assay plate, 40% Human AB serum) | TC50 (Human PBMCs; SIVMac251 assay plate, 40% Human AB serum) | Inhibition of HCV RNA replicon associated luciferase activity (HCV RNA replicon; lowest concentrations employed in the assay) | TC50 (Human PBMCs; HIV-1Ba-L assay plate) | TC50 (Human PBMCs; HIV-1IIIB assay plate) | TC50 (Human PBMCs; SIVMac251 assay plate) | Cytotoxicity (Human PBMCs)
CC(=O)OC12CC(C)C3(O)C(C=C(COC(=O)CCC(=O)O)CC4(O)C(=O)C(C)=CC43)C1C2(C)C (stereo not shown) [SA-101B, Prostratin Succinate] | EC50 was not reached | no cytotoxicity | >1.00 µg/mL | >1.00 µg/mL | >1.00 µg/mL | – | – | – | – | –
CC(=O)O[C@@]12C[C@@H](C)[C@@]3(O)[C@@H](C=C(CO)C[C@]4(O)C(=O)C(C)=C[C@@H]34)[C@@H]1C2(C)C [SA-101A, 12-deoxyphorbol 13-acetate] | – | – | – | – | – | greater than 50% | >1.00 µg/mL | >1.00 µg/mL | >1.00 µg/mL | no cytotoxicity
